Test results taken from PubChem BioAssay (NCI).
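All cell lines were grown in 96-well plates and treated with compound for 48 hours. GI50: concentration for 50% inhibition of growth. The concentration for full growth arrest is given as TGI.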

Tests used:
Test in all cases: growth of human tumour cells (NCI), 48 h
A549 NSCLC = tested on: A549 NSCLC
NCI-H522 lung = tested on: NCI-H522 lung
SK-MEL-5 melanoma = tested on: SK-MEL-5 melanoma
SK-MEL-2 melanoma = tested on: SK-MEL-2 melanoma
TK-10 renal = tested on: TK-10 renal
SNB-75 CNS = tested on: SNB-75 CNS
MALME-3M melanoma = tested on: MALME-3M melanoma
786-0 renal = tested on: 786-0 renal
K-562 leukemia = tested on: K-562 leukemia
SNB-19 CNS = tested on: SNB-19 CNS

SMILES: Cc1cccc(C(C)(C)C)c1NC(=O)C(=O)C(c1cnc2ccccc2n1)[N+](=O)[O-] (stereo not given)
- TGI (A549 NSCLC): > 100 µM
- TGI (NCI-H522 lung): > 100 µM
- TGI (SK-MEL-5 melanoma): > 100 µM
- TGI (SK-MEL-2 melanoma): > 100 µM
- TGI (TK-10 renal): > 100 µM
- TGI (SNB-75 CNS): > 100 µM
- TGI (MALME-3M melanoma): > 100 µM
- TGI (786-0 renal): > 100 µM
- TGI (K-562 leukemia): > 100 µM
- TGI (SNB-19 CNS): > 100 µM

SMILES: NCc1ccc(-n2c(-c3nonc3N)nc3cnccc32)cc1
- GI50 (A549 NSCLC): 6.86 µM
- TGI (A549 NSCLC): > 25 µM
- GI50 (NCI-H522 lung): 7.66 µM
- TGI (NCI-H522 lung): > 25 µM
- GI50 (SK-MEL-5 melanoma): 9.25 µM
- TGI (SK-MEL-5 melanoma): > 25 µM
- GI50 (SK-MEL-2 melanoma): > 25 µM
- TGI (SK-MEL-2 melanoma): > 25 µM
- GI50 (TK-10 renal): 0.385 µM
- TGI (TK-10 renal): > 25 µM
- GI50 (SNB-75 CNS): 0.291 µM
- TGI (SNB-75 CNS): > 25 µM
- GI50 (MALME-3M melanoma): > 25 µM
- TGI (MALME-3M melanoma): > 25 µM
- GI50 (786-0 renal): 7.51 µM
- TGI (786-0 renal): > 25 µM
- GI50 (K-562 leukemia): > 25 µM
- TGI (K-562 leukemia): > 25 µM
- GI50 (SNB-19 CNS): > 25 µM
- TGI (SNB-19 CNS): > 25 µM

SMILES: COc1ccc2c(c1)C(=O)c1c-2n(CCCN2CCOCC2)c(=O)c2ccccc12
- GI50 (A549 NSCLC): 1.97 µM
- TGI (A549 NSCLC): 8.41 µM
- GI50 (NCI-H522 lung): 1.52 µM
- TGI (NCI-H522 lung): 13.9 µM
- GI50 (SK-MEL-5 melanoma): 1.37 µM
- TGI (SK-MEL-5 melanoma): 2.68 µM
- GI50 (SK-MEL-2 melanoma): 14.5 µM
- TGI (SK-MEL-2 melanoma): 63.4 µM
- GI50 (TK-10 renal): 4.62 µM
- TGI (TK-10 renal): 57.2 µM
- GI50 (SNB-75 CNS): 3.86 µM
- TGI (SNB-75 CNS): 23.1 µM
- GI50 (MALME-3M melanoma): 3.44 µM
- TGI (MALME-3M melanoma): 18.7 µM
- GI50 (786-0 renal): 2.38 µM
- TGI (786-0 renal): 9.46 µM
- GI50 (K-562 leukemia): 4.47 µM
- TGI (K-562 leukemia): > 100 µM
- GI50 (SNB-19 CNS): 2.65 µM
- TGI (SNB-19 CNS): 30.9 µM

SMILES: COc1ccc2c(C(=O)O)cc3cc(OC)c(OC)cc3c2c1
- TGI (A549 NSCLC): > 100 µM
- TGI (NCI-H522 lung): > 100 µM
- TGI (SK-MEL-5 melanoma): > 100 µM
- TGI (SK-MEL-2 melanoma): > 100 µM
- TGI (TK-10 renal): > 100 µM
- TGI (SNB-75 CNS): > 100 µM
- TGI (MALME-3M melanoma): > 100 µM
- TGI (786-0 renal): > 100 µM
- TGI (K-562 leukemia): > 100 µM
- TGI (SNB-19 CNS): > 100 µM

SMILES: Cc1c2ccncc2c(C)c2c1[nH]c1ccc(OC(C)(C)C)cc12
- TGI (A549 NSCLC): 13.1 µM
- TGI (NCI-H522 lung): 5.81 µM
- TGI (SK-MEL-5 melanoma): 4.9 µM
- TGI (SK-MEL-2 melanoma): 3.88 µM
- TGI (TK-10 renal): 18.1 µM
- TGI (SNB-75 CNS): 3.73 µM
- TGI (MALME-3M melanoma): 3.31 µM
- TGI (786-0 renal): 2.96 µM
- TGI (K-562 leukemia): 4.93 µM
- TGI (SNB-19 CNS): 7.53 µM

SMILES: Cc1ccc2c(c1)ncn2-c1ncnc2c1CC(C)c1ccccc1N2C (stereo not given)
- GI50 (A549 NSCLC): 0.248 µM
- TGI (A549 NSCLC): 17.5 µM
- GI50 (NCI-H522 lung): 0.121 µM
- TGI (NCI-H522 lung): 5.68 µM
- GI50 (SK-MEL-5 melanoma): 0.138 µM
- TGI (SK-MEL-5 melanoma): 1.32 µM
- GI50 (SK-MEL-2 melanoma): 1.13 µM
- TGI (SK-MEL-2 melanoma): 18.3 µM
- GI50 (TK-10 renal): 11.6 µM
- TGI (TK-10 renal): 24.3 µM
- GI50 (SNB-75 CNS): 0.0892 µM
- TGI (SNB-75 CNS): 18.1 µM
- GI50 (MALME-3M melanoma): 0.0513 µM
- TGI (MALME-3M melanoma): 4.6 µM
- GI50 (786-0 renal): 0.487 µM
- TGI (786-0 renal): 14.7 µM
- GI50 (K-562 leukemia): 0.0399 µM
- TGI (K-562 leukemia): 11.2 µM
- GI50 (SNB-19 CNS): 0.17 µM
- TGI (SNB-19 CNS): 20.7 µM

SMILES: O=c1[nH]cc(OCC(F)(F)F)c(=O)[nH]1
- TGI (A549 NSCLC): > 100 µM
- TGI (NCI-H522 lung): > 100 µM
- TGI (SK-MEL-5 melanoma): > 100 µM
- TGI (SK-MEL-2 melanoma): > 100 µM
- TGI (TK-10 renal): > 100 µM
- TGI (SNB-75 CNS): > 100 µM
- TGI (MALME-3M melanoma): > 100 µM
- TGI (786-0 renal): > 100 µM
- TGI (K-562 leukemia): > 100 µM
- TGI (SNB-19 CNS): > 100 µM

SMILES: CCSc1nc(COC(=O)NC)c(COC(=O)NC)n1C
- TGI (A549 NSCLC): > 100 µM
- TGI (NCI-H522 lung): > 95.4 µM
- TGI (SK-MEL-5 melanoma): > 100 µM
- TGI (SK-MEL-2 melanoma): > 100 µM
- TGI (TK-10 renal): > 100 µM
- TGI (SNB-75 CNS): > 100 µM
- TGI (MALME-3M melanoma): > 100 µM
- TGI (786-0 renal): > 100 µM
- TGI (K-562 leukemia): > 68.1 µM
- TGI (SNB-19 CNS): > 100 µM

SMILES: CN(C)C(=O)C1CCC(=C2C(=O)OC(C)(C)OC2=O)N1C (stereo not given)
- TGI (A549 NSCLC): > 100 µM
- TGI (NCI-H522 lung): > 100 µM
- TGI (SK-MEL-5 melanoma): > 100 µM
- TGI (SK-MEL-2 melanoma): > 100 µM
- TGI (TK-10 renal): > 100 µM
- TGI (SNB-75 CNS): > 100 µM
- TGI (MALME-3M melanoma): > 100 µM
- TGI (786-0 renal): > 100 µM
- TGI (K-562 leukemia): > 100 µM
- TGI (SNB-19 CNS): > 100 µM

SMILES: Nc1nc(Nc2cccc(F)c2)nc2ccccc12
- GI50 (A549 NSCLC): 36.9 µM
- TGI (A549 NSCLC): > 100 µM
- GI50 (NCI-H522 lung): 23.9 µM
- TGI (NCI-H522 lung): 54 µM
- GI50 (SK-MEL-5 melanoma): 14.5 µM
- TGI (SK-MEL-5 melanoma): 28.3 µM
- GI50 (SK-MEL-2 melanoma): 25.3 µM
- TGI (SK-MEL-2 melanoma): 48.8 µM
- GI50 (TK-10 renal): 39.3 µM
- TGI (TK-10 renal): 90.3 µM
- GI50 (SNB-75 CNS): 15.8 µM
- TGI (SNB-75 CNS): 50.4 µM
- GI50 (MALME-3M melanoma): 18.6 µM
- TGI (MALME-3M melanoma): 37.5 µM
- GI50 (786-0 renal): 17.4 µM
- TGI (786-0 renal): 33.6 µM
- GI50 (K-562 leukemia): 24.9 µM
- TGI (K-562 leukemia): > 100 µM
- GI50 (SNB-19 CNS): 35.3 µM
- TGI (SNB-19 CNS): > 100 µM

SMILES: Clc1ccc(CN2COc3c(cc(Cl)c4cccnc34)C2)cc1
- TGI (A549 NSCLC): 6.12 µM
- TGI (NCI-H522 lung): 3.12 µM
- TGI (SK-MEL-5 melanoma): 8.92 µM
- TGI (SK-MEL-2 melanoma): 3.87 µM
- TGI (TK-10 renal): 13.4 µM
- TGI (SNB-75 CNS): 11 µM
- TGI (MALME-3M melanoma): 5.74 µM
- TGI (786-0 renal): 9.41 µM
- TGI (K-562 leukemia): 3.74 µM
- TGI (SNB-19 CNS): 16 µM

SMILES: CCc1c[nH]c2ncnc(N3CC[C@@](N)(CNC(=O)c4ccc(F)cc4F)C3)c12
- GI50 (A549 NSCLC): 24.5 µM
- TGI (A549 NSCLC): > 86.9 µM
- GI50 (NCI-H522 lung): 29.6 µM
- TGI (NCI-H522 lung): > 75.7 µM
- GI50 (SK-MEL-5 melanoma): 32.8 µM
- TGI (SK-MEL-5 melanoma): > 100 µM
- GI50 (SK-MEL-2 melanoma): 35.5 µM
- TGI (SK-MEL-2 melanoma): > 100 µM
- GI50 (TK-10 renal): 22.2 µM
- TGI (TK-10 renal): > 83.9 µM
- GI50 (SNB-75 CNS): 16.3 µM
- TGI (SNB-75 CNS): 77.5 µM
- GI50 (MALME-3M melanoma): 33.4 µM
- TGI (MALME-3M melanoma): > 91.2 µM
- GI50 (786-0 renal): 25.9 µM
- TGI (786-0 renal): > 85.5 µM
- GI50 (K-562 leukemia): 48.3 µM
- TGI (K-562 leukemia): > 100 µM
- GI50 (SNB-19 CNS): 44.8 µM
- TGI (SNB-19 CNS): > 100 µM

SMILES: CC(C)(Br)C(=O)/C=C/c1ccccc1
- TGI (A549 NSCLC): 56.7 µM
- TGI (NCI-H522 lung): 0.381 µM
- TGI (SK-MEL-5 melanoma): 27.5 µM
- TGI (SK-MEL-2 melanoma): 3.96 µM
- TGI (TK-10 renal): 37.9 µM
- TGI (SNB-75 CNS): 32.6 µM
- TGI (MALME-3M melanoma): 10.2 µM
- TGI (786-0 renal): 2.22 µM
- TGI (K-562 leukemia): > 100 µM
- TGI (SNB-19 CNS): 78.3 µM

SMILES: CN(C)c1ccc(C(N)=O)cn1
- TGI (A549 NSCLC): > 100 µM
- TGI (NCI-H522 lung): > 100 µM
- TGI (SK-MEL-5 melanoma): > 100 µM
- TGI (SK-MEL-2 melanoma): > 100 µM
- TGI (TK-10 renal): > 100 µM
- TGI (SNB-75 CNS): > 100 µM
- TGI (MALME-3M melanoma): > 100 µM
- TGI (786-0 renal): > 100 µM
- TGI (K-562 leukemia): > 100 µM
- TGI (SNB-19 CNS): > 100 µM
